Assay results as given in patent US20250002855A1, “METHODS FOR EXPANDING T CELLS FOR THE TREATMENT OF CANCER AND RELATED MALIGNANCIES” (Immatics US, Inc., priority 2020, published 2025).

Columns and labels:
[1] = system: tumor-infiltrating lymphocytes; settings: in the presence of IL-21; after 2 weeks of culture; cited from earlier work
γδ T cells = test: δ1 and δ2 populations by flow cytometry; type: cell-based, human; settings: Day 21; culture without vs with zoledronate (5 μM)
Excerpt: Cells were harvested on Day 21 and analyzed by flow cytometry to determine δ1 and δ2 populations.
The presence of δ1 cells as a percentage of live cells is shown for two donors in FIG. 18A & 18B.

O=C(CCCCCCC(=O)Nc1ccccc1)NO [SAHA, suberoylanilide hydroxamic acid]
Tcm αβ T cells (CD28+CD62L+) [1]: increase Tcm αβ T cells

O=P(O)(O)C(O)(Cn1ccnc1)P(=O)(O)O [zoledronate]
δ1 and δ2 populations (γδ T cells): lack of zoledronate in the culture results in a polyclonal population
